For data set [1], the system named is HT-29. Briefly: Induction of apoptosis in human HT-29 cells at IC50 concentration incubated for 24 hrs by Annexin V-FITC/PI staining based flow cytometric analysis. It counts as functional, cell-based. (Flow cytometry measures light scatter and fluorescence of single cells or particles in a stream.)
A short description of data set [2]: Drug localization in cytoplasm of human HepG2 cells assessed as green fluorescence at IC50 concentration incubated for 30 min to 24 hrs by DAPI staining based confocal microscopic analysis. It counts as ADME, subcellular. The following applies: time 30-1440 min.
The nature of data set [3]: Drug localization in cytoplasm of mouse B16-F10 cells assessed as green fluorescence at IC50 concentration incubated for 30 min to 24 hrs by DAPI staining based confocal microscopic analysis. The following applies: time 30-1440 min. It counts as ADME, subcellular.
Data set [4] deals with HepG2. The data set is described as follows: Induction of apoptosis in human HepG2 cells at IC50 concentration incubated for 24 hrs by Annexin V-FITC/PI staining based flow cytometric analysis. It counts as functional, cell-based.
Data set [5] has as its system B16-F10. Briefly: Induction of apoptosis in mouse B16-F10 cells assessed as total apoptotic cells at IC50 concentration incubated for 72 hrs by Annexin V-FITC/PI staining based flow cytometric analysis relative to control. The class given is functional.
Data set [6] relates to B16-F10. The data set is described as follows: Potency index, ratio of oleanolic acid IC50 to test compound IC50 for cytotoxicity against mouse B16-F10 cells assessed as reduction in cell viability incubated for 72 hrs by MTT assay. It counts as functional.
A short description of data set [7]: Drug localization in cytoplasm of human HT-29 cells assessed as green fluorescence at IC50 concentration incubated for 30 min to 24 hrs by DAPI staining based confocal microscopic analysis. It counts as ADME, subcellular. The following applies: time 30-1440 min.
Data set [8] deals with HepG2. The data set is described as follows: Cytotoxicity against human HepG2 cells assessed as decrease in cell density at IC50 concentration. It counts as functional, cell-based. The following applies: time 30-1440 min, TDE = time-dependent effect.
The test system of data set [9] is HT-29. The data set is described as follows: Potency index, ratio of maslinic acid IC50 to test compound IC50 for cytotoxicity against human HT-29 cells assessed as reduction in cell viability incubated for 72 hrs by MTT assay. It counts as functional. (Tetrazolium dyes change colour on reduction, which living cells bring about.)
Data set [10] relates to HT-29. Briefly: Potency index, ratio of oleanolic acid IC50 to test compound IC50 for cytotoxicity against human HT-29 cells assessed as reduction in cell viability incubated for 72 hrs by MTT assay. It counts as functional.
In data set [11] the test system is HT-29. The data set is described as follows: Cytotoxicity against human HT-29 cells assessed as decrease in cell density at IC50 concentration. As to conditions: time 30-1440 min, TDE = time-dependent effect. The class given is functional, cell-based.
Data set [12] relates to B16-F10. The data set is described as follows: Cytotoxicity against mouse B16-F10 cells assessed as decrease in cell density at IC50 concentration. The class given is functional, cell-based. The following applies: time 30-1440 min, TDE = time-dependent effect.
Data set [13] has as its system B16-F10. Briefly: Potency index, ratio of maslinic acid IC50 to test compound IC50 for cytotoxicity against mouse B16-F10 cells assessed as reduction in cell viability incubated for 72 hrs by MTT assay. The class given is functional.
The subject of data set [14] is HT-29. Briefly: Induction of apoptosis in human HT-29 cells assessed as total apoptotic cells at IC50 concentration incubated for 72 hrs by Annexin V-FITC/PI staining based flow cytometric analysis relative to control. The class given is functional.
Data set [15] has as its system B16-F10. The data set is described as follows: Induction of apoptosis in mouse B16-F10 cells at IC50 concentration incubated for 24 hrs by Annexin V-FITC/PI staining based flow cytometric analysis. The class given is functional, cell-based.
Data set [16] concerns HepG2. The data set is described as follows: Induction of apoptosis in human HepG2 cells assessed as total apoptotic cells at IC50 concentration incubated for 72 hrs by Annexin V-FITC/PI staining based flow cytometric analysis relative to control. It counts as functional.
For data set [17], the system named is HepG2. Briefly: Potency index, ratio of maslinic acid IC50 to test compound IC50 for cytotoxicity against human HepG2 cells assessed as reduction in cell viability incubated for 72 hrs by MTT assay. It counts as functional.
The test system of data set [18] is HepG2. The data set is described as follows: Potency index, ratio of oleanolic acid IC50 to test compound IC50 for cytotoxicity against human HepG2 cells assessed as reduction in cell viability incubated for 72 hrs by MTT assay. It counts as functional.

Calls of active or inactive are those of the source. The calls are words filed in the database; no cut-off is given here.

In the case of `CC1(C)CC[C@]2(C(=O)O)CC[C@]3(C)C(=CC[C@@H]4[C@@]5(C)CC[C@H](OC(=O)CCCCCNc6ccc([N+](=O)[O-])c7nonc67)C(C)(C)[C@@H]5CC[C@]43C)[C@@H]2C1`, the result in the data set with HT-29 [1], in the data set with HepG2 [4] and in the data set with B16-F10 [15] was Active. The Drug uptake entry in data set [2], in [3] and in data set [7] was “Active” each time. Besides, the Activity in the data set on B16-F10 [5] was 31%; in the data set on HepG2 [8] it was “Tde”; with HT-29 [11], “Tde”; in the data set on B16-F10 [12], “Tde”; in the data set with HT-29 [14] it was 31%; in the data set with HepG2 [16], 31%. Besides, the Ratio IC50 in the data set with B16-F10 [6] came out at 44; in the data set with HT-29 [9] it was 1.7; with HT-29 [10], 22; in the data set on B16-F10 [13], 15; with HepG2 [17], 7.9; in the data set on HepG2 [18], 17.

Turning to `CC1(C)CC[C@]2(C(=O)O)CC[C@]3(C)C(=CC[C@@H]4[C@@]5(C)C[C@@H](OC(=O)CCCCCNc6ccc([N+](=O)[O-])c7nonc67)[C@H](O)C(C)(C)[C@@H]5CC[C@]43C)[C@@H]2C1`, the result with HT-29 [1], in the data set on HepG2 [4] and in the data set on B16-F10 [15] was Active. The Drug uptake result in data set [2], in data set [3] and in data set [7] was “Active” each time. Moreover, the Ratio IC50 in the data set on B16-F10 [6] turned out to be 22; in the data set on HT-29 [9] it was 5; in the data set with HT-29 [10] it was 65; in the data set with B16-F10 [13], 7.4; in the data set on HepG2 [17], 7.1; with HepG2 [18], 15. Further, the Activity entry with HepG2 [8], in the data set with HT-29 [11] and in the data set with B16-F10 [12] was “Tde” each time.

(Values after ChEMBL document CHEMBL5226367, “Synthesis, Optical Properties, and Antiproliferative Evaluation of NBD-Triterpene Fluorescent Probes” (J Nat Prod, 2023).)
